Data from publication PMC11450061 (Clinical Pharmacokinetics, 2024).
Where two headings read alike, the source gives them in different places.

How the values were obtained:
[1] = test system: BCR::ABL1^IS in patients with CML-CP treated with two or more prior TKIs; settings: asciminib 40 mg b.i.d. vs bosutinib 500 mg q.d.; cited from earlier work
[2] = asciminib 40 mg b.i.d. vs bosutinib 500 mg q.d.; cited from earlier work
[3] = Population pharmacokinetics; design: species or system human
Exposure-response safety = format: in vivo, human; settings: for predicted probability of AST increase grade ≥ 2 event within a cycle: ASCEMBL study
[4] = TEAEs leading to dose reduction/interruption, time-dependent Cox regression; format: in vivo, human; settings: 152 of 351 patients; pooled dose-finding and ASCEMBL
[5] = Concentration-QTcF analysis; format: in vivo, human
[6] = cited from earlier work
[7] = cited from earlier work; remark: listed apart in the source
[8] = test system: BCR::ABL1^IS levels in patients with CML-CP without the T315I mutation; experiment: Exposure-response efficacy; settings: Cmin model

SMILES | proportion of patients achieving MMR (BCR::ABL1^IS ≤ 0.1%) at 96 weeks [1] | AEs leading to treatment discontinuation [2] | grade ≥ 3 adverse events [2] | Cmin lower for 80 mg q.d. compared with 40 mg b.i.d. [3] | increase in Cmax with 80 mg q.d. compared with 40 mg b.i.d. ([3]; based on PopPK) | predicted probability of AST increase grade ≥ 2 event within a cycle (Exposure-response safety; 5-fold increase in geometric mean Cmax of 40 mg b.i.d.) | predicted probability of AST increase grade ≥ 2 event within a cycle (Exposure-response safety; geometric mean Cmax of 40 mg b.i.d.) | relationship between asciminib exposure and the majority of the laboratory events analyzed (Exposure-response safety; repeated measures logistic regression) | patients with TEAEs leading to dose reduction or dose interruption [4] | estimated mean QTcF change from baseline ([5]; at Cmax of 40 mg b.i.d.) | estimated mean QTcF change from baseline ([5]; at Cmax of 80 mg q.d.) | estimated mean QTcF change from baseline ([5]; at Cmax of 200 mg b.i.d.) | estimated mean QTcF change from baseline ([5]; at the HCRE (highest clinically relevant exposure)) | increase in Cmax of asciminib when taken in combination with imatinib [6] | decrease in exposure compared with the fasted state ([7]; high-fat meal) | decrease in exposure compared with the fasted state ([7]; low-fat meal) | decrease in drug effect with a Cmin lower by 30% [8] | Effmag (population mean, RSE) ([8]; patients without T315I)
COc1cc(Nc2c(C#N)cnc3cc(OCCCN4CCN(C)CC4)c(OC)cc23)c(Cl)cc1Cl [bosutinib] | 15.8% | 26.3% | 68.4% |  |  |  |  |  |  |  |  |  |  |  |  |  |  | 
O=C(Nc1ccc(OC(F)(F)Cl)cc1)c1cnc(N2CC[C@@H](O)C2)c(-c2ccn[nH]2)c1 [asciminib] | 37.6% | 7.7% | 56.4% | about 30% | 60% | 0.4% | 0.1% | no statistically significant relationship | 43.3% | 3.35 (90% CI 2.28–4.43) ms | 3.64 (90% CI 2.60–4.68) ms | 5.37 (90% CI 3.97–6.77) ms | 6.77 (90% CI 4.67–8.87) ms | 1.59 fold | approximately 65% | approximately 30% | < 2% | 42.1 (3.4%)
